According to patent US20260217711A1, “TRIAZOLOPYRIDINYL ETHER LINKED COMPOUNDS AS KINASE INHIBITORS” (Bristol-Myers Squibb Company, priority 2023, published 2026):

Tests used:
[1] = biological target: T1, mouse Breast Cancer Resistance Protein (mBcrp) (Mus musculus, UniProt Q7TMS5); assay: Transporter assay, bi-directional transport, MDCK-mBcrp cells; format: in vitro ADME; conditions: mouse, basolateral to apical / apical to basolateral, >2 = substrate, read-out: BCRP (efflux ratio)
T1 construct: host or cells: MDCK (MDCK-mBcrp)
T1 sequence (Q7TMS5 1-657): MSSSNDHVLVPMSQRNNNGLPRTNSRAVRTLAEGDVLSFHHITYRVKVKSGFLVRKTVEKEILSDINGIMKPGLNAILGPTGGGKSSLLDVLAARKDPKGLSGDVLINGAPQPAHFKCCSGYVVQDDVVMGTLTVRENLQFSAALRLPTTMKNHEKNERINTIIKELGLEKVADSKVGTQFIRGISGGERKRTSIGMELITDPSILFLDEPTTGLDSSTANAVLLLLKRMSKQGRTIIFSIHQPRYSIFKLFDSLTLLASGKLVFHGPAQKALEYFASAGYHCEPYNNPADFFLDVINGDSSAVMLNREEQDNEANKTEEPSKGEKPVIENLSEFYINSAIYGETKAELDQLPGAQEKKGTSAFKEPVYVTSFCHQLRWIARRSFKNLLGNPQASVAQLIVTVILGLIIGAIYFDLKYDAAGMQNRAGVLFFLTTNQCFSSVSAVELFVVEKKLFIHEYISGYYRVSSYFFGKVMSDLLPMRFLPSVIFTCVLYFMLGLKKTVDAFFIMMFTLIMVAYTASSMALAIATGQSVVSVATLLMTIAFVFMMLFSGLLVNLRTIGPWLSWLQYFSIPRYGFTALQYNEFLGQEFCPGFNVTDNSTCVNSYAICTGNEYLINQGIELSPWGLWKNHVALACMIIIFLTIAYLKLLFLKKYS
Method: (§1) Compounds were assessed as substrates of MDR1 P-glycoprotein (P-gp) and mouse Breast Cancer Resistance Protein (mBcrp) at 0.1 uM, for 2 hours, in bi-directional transport assays using recombinant MDCK cell lines as described previously (Feng et al. Drug Metabolism and Disposition 2008, Vol. 36:268-275). MDCK-MDR1 and MDCK-mBcrp cells were acquired from the National Institutes of Health (Bethesda, MID) and the Netherlands Cancer Institute respectively, and used under license agreement. Data are expressed as efflux ratios, where transport across the cell monolayer in the basolateral to apical direction is divided by transport in the apical to basolateral direction. Efflux ratios >2 indicate the test compound is a substrate of the transporter tested.

[2] = biological target: T2, MDR1 P-glycoprotein (P-gp) (Homo sapiens, UniProt P08183); assay: Transporter assay, bi-directional transport, MDCK-MDR1 cells; format: in vitro ADME; conditions: human, MDCK-MDR1, 0.1 uM, basolateral to apical / apical to basolateral, >2 = substrate, read-out: PGP (efflux ratio)
T2 construct: host or cells: MDCK (MDCK-MDR1)
T2 sequence (P08183 whole entry): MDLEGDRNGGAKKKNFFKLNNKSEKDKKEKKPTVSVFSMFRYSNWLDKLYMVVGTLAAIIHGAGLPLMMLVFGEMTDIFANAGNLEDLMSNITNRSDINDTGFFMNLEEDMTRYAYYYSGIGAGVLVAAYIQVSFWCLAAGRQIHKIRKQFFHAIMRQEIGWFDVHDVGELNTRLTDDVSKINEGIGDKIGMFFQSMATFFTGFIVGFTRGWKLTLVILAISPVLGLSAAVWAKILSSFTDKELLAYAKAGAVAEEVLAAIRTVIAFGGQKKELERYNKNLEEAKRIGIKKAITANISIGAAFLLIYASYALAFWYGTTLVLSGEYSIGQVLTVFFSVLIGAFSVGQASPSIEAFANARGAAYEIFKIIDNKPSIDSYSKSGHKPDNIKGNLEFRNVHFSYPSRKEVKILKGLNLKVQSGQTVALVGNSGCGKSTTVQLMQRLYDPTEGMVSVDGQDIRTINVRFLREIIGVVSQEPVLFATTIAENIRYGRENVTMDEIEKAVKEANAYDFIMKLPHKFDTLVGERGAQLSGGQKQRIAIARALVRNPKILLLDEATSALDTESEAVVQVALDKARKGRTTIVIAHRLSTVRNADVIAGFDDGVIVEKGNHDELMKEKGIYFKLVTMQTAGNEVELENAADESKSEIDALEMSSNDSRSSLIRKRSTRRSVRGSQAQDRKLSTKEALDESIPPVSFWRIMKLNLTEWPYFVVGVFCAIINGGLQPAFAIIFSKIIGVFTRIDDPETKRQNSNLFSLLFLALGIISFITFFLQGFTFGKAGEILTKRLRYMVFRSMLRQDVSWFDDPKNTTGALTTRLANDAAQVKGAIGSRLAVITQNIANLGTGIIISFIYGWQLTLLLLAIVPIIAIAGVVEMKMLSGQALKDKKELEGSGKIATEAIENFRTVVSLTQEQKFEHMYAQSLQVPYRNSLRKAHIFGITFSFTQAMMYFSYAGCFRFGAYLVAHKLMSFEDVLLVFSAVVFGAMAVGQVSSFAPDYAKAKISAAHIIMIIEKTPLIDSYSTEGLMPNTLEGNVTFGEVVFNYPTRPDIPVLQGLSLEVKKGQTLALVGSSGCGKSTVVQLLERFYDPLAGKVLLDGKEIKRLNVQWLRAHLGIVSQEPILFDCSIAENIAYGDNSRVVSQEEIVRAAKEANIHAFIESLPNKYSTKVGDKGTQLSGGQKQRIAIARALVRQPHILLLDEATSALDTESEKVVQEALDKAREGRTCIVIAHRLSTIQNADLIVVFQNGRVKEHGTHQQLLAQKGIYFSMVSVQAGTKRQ
Method: as §1

hWB = assay: hWB; format: cell-based; conditions: printed as "hWB" value in the pMLKL IC50 column; no method given

efflux ratio at 2 h, 0.1 uM [1]	efflux ratio at 2 h, 0.1 uM [2]	IC50 (hWB) [nM]	SMILES
2.5	1.6	4	CC(O)(c1ccc(F)cc1)C(F)(F)CCOc1c(F)cc(F)c(-c2ccn3nc(N)nc3c2)c1F (single isomer, unassigned) [Example 29, 5-(3-(2-amino-[1,2,4]triazolo[1,5-a]pyridin-7-yl)-2,4,6-trifluorophenoxy)-3,3-difluoro-2-(4-fluorophenyl)pentan-2-ol]
3	2.5	8	CC(O)(c1ccc(F)cc1)C(F)(F)CCOc1c(F)c(F)cc(-c2ccn3nc(N)nc3c2)c1F (single isomer, unassigned) [Example 30, 5-(3-(2-amino-[1,2,4]triazolo[1,5-a]pyridin-7-yl)-2,5,6-trifluorophenoxy)-3,3-difluoro-2-(4-fluorophenyl)pentan-2-ol]

SMILES	efflux ratio at 2 h, 0.1 uM [1]	efflux ratio at 2 h, 0.1 uM [2]	IC50 (hWB) [nM]
CC(O)(c1ccc(F)cn1)C(F)(F)CCOc1c(F)ccc(-c2ccn3nc(N)nc3c2)c1F (single isomer, unassigned) [Example 27, 5-(3-(2-amino-[1,2,4]triazolo[1,5-a]pyridin-7-yl)-2,6-difluorophenoxy)-3,3-difluoro-2-(5-fluoropyridin-2-yl)pentan-2-ol]	1.6	1.1	64
